Results published in US20070128731A1, “Methods for preparing crystalline rapamycin and for measuring crystallinity of rapamycin compounds using differential scanning calorimetry” (Wyeth, priority 2005, published 2007).

Assay: Storage stability of crystalline rapamycin followed by DSC
Assay type: physicochemical
Protocol: In one example, the crystallinity is maintained over a period of about 2 months. In another example, the crystallinity is maintained over a period of about 4 months. In a further example, the crystallinity is maintained up to about 60% relative humidity.
In this example, samples containing rapamycin (Table 3) were analyzed by DSC and optical microscopy. The morphology and approximate particle size were determined using optical microscopy. A standard DSC sample ramp rate of 10° C./min and a hermetically sealed aluminum pan were utilized.
Sample 2 contained crystalline rapamycin and about 2 to about 3% of oxidative/hydrolysis degradation impurities and was prepared using the process of Example 3. A portion of the batch was maintained at 25° C. and 60% relative humidity for 2 months.
Sample 3 contains crystalline rapamycin and about 2 to about 3% of oxidative/hydrolysis degradation impurities and was prepared using the process of example 3. A portion of the batch was subjected to 25° C. and 60% relative humidity for 4 months.

CO[C@H]1C[C@@H]2CC[C@@H](C)[C@@](O)(O2)C(=O)C(=O)N2CCCC[C@H]2C(=O)O[C@H]([C@H](C)C[C@@H]2CC[C@@H](O)[C@H](OC)C2)CC(=O)[C@H](C)/C=C(\C)[C@@H](O)[C@@H](OC)C(=O)[C@H](C)C[C@H](C)/C=C/C=C/C=C/1C [rapamycin]
effect of low levels of impurities on DSC melting temperature over time (about 2 to about 3% oxidative/hydrolysis degradation impurities, 25° C. and 60% relative humidity, 2 and 4 months): do not affect
crystallinity on storage (period up to 4 months at up to about 60% relative humidity): substantially maintained
change in the DSC melting endotherm on storage (stored for up to 4 months at up to about 60% relative humidity): minimal change
